{
  "source": "patent US20220372585A1",
  "about": "“Sensors for Aromatic Compounds and Methods of Making and Using Same” (Washington University, priority 2021, published 2022)",
  "key": {"[1]": {"settings": "Sauerkraut, safe limit; cited from earlier work"}, "[2]": {"system": "wild-type TynA with L108T FeaR", "format": "cell-based, E. coli MG1655", "settings": "L108T FeaR; 24 h; FIG. 28B", "experimental": "(§1) Flow cytometry was performed as previously described. […] Cytometry data was gated by forward and side scatter."}, "[3]": {"system": "wild-type TynA with M83Q FeaR", "format": "cell-based, E. coli MG1655", "settings": "M83Q FeaR; 24 h; FIG. 28A", "experimental": "as §1"}, "[4]": {"system": "wild-type TynA with W110C FeaR", "format": "cell-based, E. coli MG1655", "settings": "W110C FeaR; 24 h; FIG. 28D", "experimental": "as §1"}, "[5]": {"system": "wild-type TynA with W110S FeaR", "format": "cell-based, E. coli MG1655", "settings": "W110S FeaR; 24 h; FIG. 28C", "experimental": "as §1"}, "[6]": {"system": "sensor systems containing FeaR-KA", "test": "GFP fluorescence from PtynA in part-swapped sensor systems containing FeaR-KA", "format": "cell-based, Klebsiella aerogenes", "settings": "0.5 mM, 24 h, FIG. 31", "from_the_text": "FIG. 31. […] PtynA from MG or KP/KA was regulated by TynA from MG or KP and FeaR from MG or KA. […] Values and error bars are the average and standard deviation of biological triplicate, respectively.\nTryptamine specific biosensors were first designed by genetic parts swapping. Three types of tynA and feaR genes from E. coli K-12 MG1655 (MG), Klebsiella aerogenes (KA), and Klebsiella pneumoniae (KP), and two types of PtynA sequences were chosen and tested in 18 different combinations (see e.g., FIG. 30). PtynA-KP/KA was constructed by replacing the FeaR binding sites of PtynA-MG with those from Klebsiella species.\nMoreover, a Tryptamine specific variant I109N was discovered using a sensor system with PtynA-MG, TynA-KP and FeaR-KA as the wild type (VVT) for further directed evolution (see e.g., FIG. 32). […] Transfer curves for the tryptamine-specific FeaR-KA I109N sensor after 5 or 24 hours of induction further illustrate the specificity of the sensor for tryptamine (see e.g., FIG. 33A-FIG. 33B)."}, "WT TrpR": {"biological_target": "T1, WT TrpR (Escherichia coli, UniProt P0A881)", "T1 construct": "trpR (WT); expressed in transfected cells; host or cells: E. coli Nissle 1917 (EcN), genomic trpR knocked out; plasmid pMBA035 (P17-trpR)", "test": "WT TrpR system, repression of GFP expression", "format": "cell-based, E. coli", "from_the_text": "Among the various aspects of the present disclosure is the provision of systems and methods for detecting aromatic compounds. An aspect of the present disclosure provides for a method of protein engineering (e.g., a regulator protein) comprising: mutagenizing specific amino acids in and around a ligand-binding site of a protein, wherein the mutagenizing enables changes in ligand-protein binding specificity while maintaining protein-DNA interaction and thus downstream gene expression control; and/or linking ligand-protein binding to output response. An aspect of the present disclosure provides for an engineered molecular sensor. […] In some embodiments, the engineered regulator protein or the ligand-protein binding site or a sequence encoding the engineered regulator protein or the ligand-protein binding site of the engineered regulator protein is at least about 80% identical to a WT regulator protein or a WT regulator ligand-protein binding site; or a sequence encoding the engineered regulator protein or ligand binding site thereof is at least about 80% identical to a sequence encoding the WT regulator protein or the WT regulator ligand-protein binding site; or functional fragment thereof, the engineered regulator protein having ligand binding activity. In some embodiments, the engineered molecular sensor is optionally genomically integrated into a microorganism, optionally selected from a probiotic or is a purified cell-free sensor. In some embodiments, the engineered regulator protein or enzyme is an engineered TrpR, TyrR, TynA, or FeaR protein. […] In some embodiments, the engineered regulator protein is an engineered TrpR and is a tryptophan (Trp)-, 5-hydroxytryptophan (5-HTP)-, or tryptamine (Trpta)-specific sensor. In some embodiments, the engineered regulator protein or enzyme is an engineered TrpR, TyrR, TynA, or FeaR, and/or wherein the engineered TrpR, TyrR, TynA, or FeaR comprises at least one mutation to a ligand-protein binding site having specific amino acid binding activity. […]"}},
  "data": [
    {"molecule": "NCCc1ccccc1", "note": "[Phenylethylamine, phenylethylamine]", "values": [
      {"measurement": "Concentration", "setting": "[1]", "result": 30, "unit": "µM"}
    ]},
    {"molecule": "NCCc1c[nH]c2ccccc12", "note": "[Tryptamine, tryptamine]", "values": [
      {"measurement": "response", "setting": "[2]", "result": "lack of response"},
      {"measurement": "response", "setting": "[3]", "result": "lack of response"},
      {"measurement": "response", "setting": "[4]", "result": "lack of response"},
      {"measurement": "response", "setting": "[5]", "result": "lack of response"},
      {"measurement": "fluorescence intensity", "setting": "[6]", "result": "significant enhancement of fluorescence intensity"},
      {"measurement": "fold repression of GFP expression", "setting": "WT TrpR", "result": 7, "unit": "fold"}
    ]}
  ]
}
